Results published in patent US8383663B2, “Bendamustine anionic-catioinic cyclopolysaccharide compositions” (priority 2010, dated 2013).
Where a name gives a salt, the structure may show the parent alone.

Test system: human breast carcinoma MDA-MB-231 cells
Assay: Growth of subcutaneous solid tumors of human breast carcinoma MDA-MB-231 cells in mice
Assay type: in vivo, Balb/c mice
Conditions: 35 mg/kg i.v. on day 1, 2, 13 and 14, Average (SEM)
Method: Effect of bendamustine in a composition comprising sodium sulfobutyl ether β-cyclodextrin and heptakis(6-amino-6-deoxy-β-cyclodextrin) on growth of subcutaneous solid tumors of human breast carcinoma MDA-MB-231 cells in Balb/c mice.
Balb/c mice aging 5 to 6 weeks were purchased from Charles River Canada Inc. The animals were kept 5 per cage with an air filter cover under light (12 light/dark cycle, light on at 6H00) and temperature (22°±1° C.)-controlled environment. All manipulations of animals were performed under a sterilized laminar. The animals had ad libitum access to Purina mouse chow (Pro Lab PMH 4018, Trademark of Agway, Syracuse, N.Y.) and water. These animal studies were conducted according to the “Guidelines for Care and Use of Experimental Animals”.
Human breast cancer cells MDA-MB 231 were cultured in the appropriated culture medium. The cells were harvested in their logarithmic growth phase for the preparation of tumor implantation.
MDA-MB-231 cells (5.0×10^5 cells per an injection) in culture medium with 30% Matrigel were subcutaneously inoculated at 2 sides of the flank of each animal. Nine to ten days after implantation, when tumor size reaches to 0.5 to 0.8 cm in the diameter, the animals were be randomly divided into groups, 5 animals per group. The treatments by intravenously injection were performed on day 1, 2, 13 and 14. The control group was treated with isotonic saline. The reference group was treated with 35 mg/kg dose of bendamustine HCl in water (7 mg/mL). The test group was treated with 60 mg/kg dose (equitoxic to the reference group treatment) of the composition of the present invention, comprising 13 mg/g bendamustine HCl, 20% SBECD and 1% H6A, and mannitol, prepared according to the procedure set forth in Example 1.
Subcutaneous solid tumor measurements were performed on the day of first injection and at 3- to 4-day intervals thereafter. Two largest perpendicular diameters of each tumor were measured with calipers and tumor size was estimated using formula […] where TV: tumor volume; L: length; W: width.
The body weights of animals were also noted.

In the case of `Cn1c(CCCC(=O)O)nc2cc(N(CCCl)CCCl)ccc21` [Reference BM, bendamustine HCl], the “Tumor weight after treatment” value (day 0) is reported as 0.111 (0.013) g, the “Tumor weight after treatment” value (day 2) is reported as 0.123 (0.016) g and the “Tumor weight after treatment” value (day 5) is reported as 0.134 (0.015) g. For the same compound, the “Tumor weight after treatment” value (day 7) was 0.146 (0.017) g, the “Tumor weight after treatment” value (day 9) was 0.156 (0.017) g and the “Tumor weight after treatment” value (day 12) was 0.174 (0.018) g. The “Tumor weight after treatment” value (day 14) was 0.205 (0.021) g, the “Tumor weight after treatment” value (day 16) was 0.228 (0.024) g and the “Tumor weight after treatment” value (day 19) was 0.248 (0.035) g. For the same compound, the “Tumor weight after treatment” value (day 21) was 0.272 (0.042) g and the “Tumor weight after treatment” value (day 23) was 0.296 (0.047) g.
